Measurements reported in US20200009118A1, “COMPOSITIONS AND METHODS FOR THE TREATMENTOF NEURODEGENERATIVE AND OTHER DISEASES” (Glialogix, Inc., priority 2017, published 2020).

What was measured:
[1] = test system: xCT mRNA in primary rat microglial cells; assay: qPCR of xCT mRNA in primary microglia; format: cell-based; settings: control gene gamma-actin
Protocol: (§1) Following 24 hours, cells were then mixed and aliquoted in to 96 wells at 7,000-20,000 cells per well in fresh media, either complete media (microglia) or minimal media (100 mL Neurobasal Media (#12348-017, Life Tech) supplemented with 1 mL N2 supplement (#17502-048, Life Tech) and 0.5 mM GlutaMax (#35050-061, Life Tech). Compounds to be tested were then added at the indicated concentrations and cells harvested 18 hours later by centrifugation at 2000×g, 5 minutes at 4° C. mRNA was isolated from the cells by use of the Purelink microscale RNA extraction kit (Catalog #12183016, Life Technologies) kit and the mRNA resuspended in 12-22 μl of RNase-free water according to the manufacturer's instructions. cDNA was prepared by use of the Superscript VILO kit (Catalog #11755050, Life Technologies) according to the manufacturer's instructions. The cDNA was eluted in a final volume of 20 μl RNase-free water and 4 μl was used for each qPCR reaction. For the real-time qPCR reactions, primers and reagents were supplied by Life Technologies and used according to the manufacturer's instructions. The detection molecule was the TaqMan probe with FAM dye label on 5′ end that binds to non-labeled primer pairs. The qPCR machine was a model 7500 Fast Real Time machine from ABI and used according to the manufacturer's instructions. 4 μl of the cDNA reaction was used for each qPCR reactions in a final volume of 20 μl. […] mRNA levels were quantitated by measuring the Cycle threshold (Ct) for each qPCR reaction using the standard algorithm supplied with the ABI 7500 Fast qPCR machine without modification. The Ct is defined as the number of cycles required for the fluorescent signal to cross the threshold (e.g. exceeds background level). […] The Cycle threshold is abbreviated Ct. The change in Ct equals [Ct (minus test agent)−Ct (plus test agent)]. Changes in Ct of the test genes xCT and IL1-beta are normalized by subtracting the change in Ct of the control gene, either gamma-actin or Hypoxanthine-guanine phosphoribosyl transferase (HPRT). […] Using the methods described in Example 11, various agents reported to cause activation of neuroinflammatory cells and/or known to cause or reflect damage to neurons, axons and/or oligodendrocytes were tested for their effect on xCT levels in primary rat microglia.

[2] = test system: IL1-beta mRNA in primary rat microglial cells; assay: qPCR of IL1-beta mRNA in primary microglia; format: cell-based; settings: control gene gamma-actin
Protocol: as §1

[3] = test system: SOD1^G93A transgenic mice; settings: cited from earlier work
[4] = for Cmax GB: pH 2; for AUC / Cmax IB: pH 5.5
[5] = test system: xCT mRNA in primary rat astrocyte cells; assay: qPCR of xCT mRNA in primary astrocytes; format: cell-based; settings: astrocyte media, control gene gamma-actin
Protocol: (§2) Primary rat astrocyte cells were purchased from All Cells (Catalog #RCTX-001F, Alameda, Calif.), thawed and resuspended in 13.4 ml of DMEM media (Catalog #12-614F, Lonza, Allendale, N.J.) supplemented with 15% v/v FBS (Catalog #F4135, Sigma-Aldrich, St. Louis, Mo.) and 560 μL aliquoted into wells in a 24-well plate. Cells were incubated at 37° C. with 5% CO2. For each qPCR experiment, 2-3 wells (approximately 42,000-63,000 cells) were transferred to a new 24-well plate with fresh astrocyte media, composed of 50% v/v DMEM, 50% v/v Neurobasal media (Catalog #12348-017), Life Technologies, supplemented with 2 mM glutamine, 300 μM L-cystine. Following 24 hours, cells were then mixed and aliquoted into 24 well plates at approximately 10,000 cells per well in the same media. Compounds to be tested were then added at the indicated concentrations and cells harvested 18 hours later by washing once with PBS (Catalog #P5493, Sigma-Aldrich) and then treated with 300 μl of StemProAccutase cell dissociation reagent (Catalog #A11105-01, Life Technologies) and incubated for 5-10 minutes at 37° C. PBS (300 μl) was added and the cells spun down in a microfuge for 5 minutes at 2,000×g at 4° C. The supernatant was removed and mRNA was isolated from the cells by using the Purelink microscale RNA extraction kit (Catalog #12183016, Life Technologies) according to the manufacturer's instructions. The mRNA resuspended in 12-22 μl of RNase-free water. cDNA was prepared by use of the Superscript VILO kit (Catalog #11755050, Life Technologies) according to the manufacturer's instructions. The cDNA was eluted in a final volume of 20 μl RNase-free water in and 4 μl was used for each qPCR reaction. qPCR reactions and primers were as described in Example 11.
(§3) To determine if tunicamycin increased levels of xCT mRNA, Tunicamycin (5 ng/ml) was added to the primary astrocyte cell cultures in astrocyte media. xCT gene expression was determined by qPCR after 18 hours of exposure to tunicamycin.
(§4) The Cycle threshold is abbreviated Ct. The change in Ct equals [Ct (minus test agent)−Ct (plus test agent)]. Changes in Ct of the test genes xCT and Lcn-2 are normalized by subtracting the change in Ct of the control gene, either gamma-actin or Hypoxanthine-guanine phosphoribosyl transferase (HPRT). Ct values are converted to absolute values by the formula: absolute value=2^^(normalized change in Ct). Absolute values are converted to percent change by multiplying the absolute value by 100.
(§5) Using the methods described in Example 11, various agents known to cause activation of neuroinflammatory cells and/or cause or reflect stress and damage to neurons, axons and/or oligodendrocytes were tested for causing an increase in xCT levels in primary rat astrocytes.

[6] = test system: Lcn-2 mRNA in primary rat astrocyte cells; assay: qPCR of Lcn-2 mRNA in primary astrocytes; format: cell-based; settings: astrocyte media, control gene gamma-actin
Protocol: as §2, §3, §4, §5

xCT = molecular target: T1, xCT (Rattus norvegicus, UniProt A0A8I6AB70); assay: Extracellular glutamate from primary astrocytes (Amplex Red Glutamic Acid/Glutamate Oxidase Assay); format: cell-based; settings: TNF-alpha 100 μg/ml 18 hours in astrocyte media, no sulfasalazine
T1 construct: host or cells: primary rat astrocytes
Source text: xCT is a cystine-glutamate exchange protein that imports extracellular cystine in exchange for exporting intracellular glutamate. xCT activity can be measured by measuring the level of the extracellular glutamate that is exported. For detection of extracellular glutamate, the Amplex Red Glutamic Acid/Glutamate Oxidase Assay Kit from Life Technologies (Catalog #A-1222, Grand Island, N.Y.) was used following the manufacturer's instructions. Fluorescence from the Amplex Red fluorophore is directly proportional to glutamate concentration and was detected on an Enspire plate reader (Perkin-Elmer (Model #2300, Santa Clara, Calif.) with excitation wavelength at 530 nm and detection wavelength at 590 nm according to the manufacturer's instructions.
Astrocytes were grown in 24-well microtiter plates at a density of approximately 10,000 cells/well in a total volume of 400 μl of astrocyte media. Cells were incubated 18 hours in either astrocyte media plus 100 μM cystine (Catalog #C8755; Sigma-Aldrich) or astrocyte media plus 100 μM cystine plus TNF-alpha (100 μg/ml). After 18 hours, the media was removed and the adherent astrocytes washed twice with PBS and then 400 μL of minimal media was added to the cells. The minimal media was EBSS (catalog #E3024, Sigma-Aldrich) supplemented with 100 μM cystine and 10 mM D-glucose (catalog #G8769, Sigma-Aldrich).
The top 25 μL of the supernatant was then transferred to a 0.5 ml microfuge tube and the aliquots frozen at −80.
For the glutamate assay, samples of the media were thawed, pipetted up and down to ensure mixing and 20 μl added to 80 μl of the Amplex Red assay mix in a 96-well microtiter plate (catalog #M4436, Greiner, Frickenhausen, Germany). The reactions were covered in aluminum foil and allowed to proceed for 30 minutes at 37° C. and then fluorescence measured as described above.
Concurrently with analysis of the astrocyte samples, a standard curve of the Amplex Red glutamate assay in the minimal media was prepared following the manufacturer's instructions and using known concentrations of glutamate: 0, 0.5, 1, 2 and 4 μM. Table 19 gives the numerical results of the standard curve assay and the results are depicted graphically in FIG. 17.

[7] = cited from earlier work
[8] = 100 ng/ml, complete media, 18 hours
[9] = published results in the SOD1 mouse model
[10] = 100 ng/ml, minimal media, 18 hours

T1 sequence (A0A8I6AB70 1-502): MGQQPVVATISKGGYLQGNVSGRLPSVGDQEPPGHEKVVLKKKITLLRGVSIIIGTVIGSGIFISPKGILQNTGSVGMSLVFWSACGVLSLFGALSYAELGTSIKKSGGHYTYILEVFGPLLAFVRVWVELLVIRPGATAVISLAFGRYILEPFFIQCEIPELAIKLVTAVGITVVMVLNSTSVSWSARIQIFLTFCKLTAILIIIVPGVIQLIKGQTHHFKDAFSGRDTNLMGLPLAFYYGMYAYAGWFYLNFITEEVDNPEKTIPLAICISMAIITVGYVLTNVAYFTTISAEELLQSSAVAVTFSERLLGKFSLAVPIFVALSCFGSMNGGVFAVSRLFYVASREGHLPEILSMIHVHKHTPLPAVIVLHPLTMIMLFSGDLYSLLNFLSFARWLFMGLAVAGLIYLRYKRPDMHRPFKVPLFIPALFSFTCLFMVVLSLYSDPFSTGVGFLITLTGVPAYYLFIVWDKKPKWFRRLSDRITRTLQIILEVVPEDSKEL
T1 sequence (Q794F9 whole entry partner): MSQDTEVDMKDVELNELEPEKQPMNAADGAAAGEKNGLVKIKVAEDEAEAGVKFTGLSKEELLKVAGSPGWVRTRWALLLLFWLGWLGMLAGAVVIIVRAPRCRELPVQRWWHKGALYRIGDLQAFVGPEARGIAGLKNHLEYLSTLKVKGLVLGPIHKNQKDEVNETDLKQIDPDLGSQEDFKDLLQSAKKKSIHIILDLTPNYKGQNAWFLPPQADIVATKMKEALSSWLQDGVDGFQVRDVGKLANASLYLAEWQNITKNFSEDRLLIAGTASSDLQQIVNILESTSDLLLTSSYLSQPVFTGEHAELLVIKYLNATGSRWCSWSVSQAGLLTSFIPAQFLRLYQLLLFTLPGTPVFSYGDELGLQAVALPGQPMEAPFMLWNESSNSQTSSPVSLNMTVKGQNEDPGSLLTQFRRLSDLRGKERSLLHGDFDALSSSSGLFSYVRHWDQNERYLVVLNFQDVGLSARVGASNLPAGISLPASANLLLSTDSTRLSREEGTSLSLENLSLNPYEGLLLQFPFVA

Molecule: IFN-gamma: inflammatory cytokine
- xCT, Change in Ct normalized to control gene ([1]; 30 ng/ml, complete media): 1.417
- xCT, Fold change normalized ([1]; 30 ng/ml, complete media): 2.7
- xCT, Percent change normalized ([1]; 30 ng/ml, complete media): 270%
- xCT, Change in Ct normalized to control gene [1, 8]: 1.636
- xCT, Fold (absolute) change normalized [1, 8]: 3.1
- xCT, Percent change normalized [1, 8]: 311%
- IL1-beta, Percent change normalized ([2]; 30 ng/ml, complete media): 2,043%
- IL1-beta, Percent change normalized [2, 8]: 446%

Molecule: CC(C)Cc1ccc(C(C)C(=O)O)cc1 (stereo not shown) [ibuprofen]
- decreased lifespan after onset of neurological disease [3, 9]: 10%

Molecule: O=C(O)c1cc(/N=N/c2ccc(S(=O)(=O)Nc3ccccn3)cc2)ccc1O [Amorphous sulfasalazine, sulfasalazine]
- Cmax GB [4]: 154 µg/mL
- AUC [4]: 30,300 min * ug/mL
- Cmax IB [4]: 372 µg/mL

Molecule: O=C(O)c1cc(/N=N/c2ccc(S(=O)(=O)Nc3ccccn3)cc2)ccc1O [Crystalline sulfasalazine, sulfasalazine]
- Cmax GB [4]: 15 µg/mL
- AUC [4]: 22,200 min * ug/mL
- Cmax IB [4]: 282 µg/mL

Molecule: Poly I/C
- xCT, Change in Ct normalized to control gene [1, 8]: 6.186
- xCT, Fold (absolute) change normalized [1, 8]: 72.8
- xCT, Percent change normalized [1, 8]: 7,281%
- xCT, Change in Ct normalized to control gene [1, 10]: 3.619
- xCT, Fold (absolute) change normalized [1, 10]: 12.3
- xCT, Percent change normalized [1, 10]: 1229%
- IL1-beta, Percent change normalized [2, 8]: 1,900%
- IL1-beta, Percent change normalized [2, 10]: 1,099%
- xCT, Change in Ct normalized to control gene ([5]; 10 ug/ml): 1.471
- xCT, Fold change normalized ([5]; 10 ug/ml): 2.77
- xCT, Percent change normalized ([5]; 10 ug/ml): 277%
- Lcn-2, Percent change normalized ([6]; 10 ug/ml): 76%

Molecule: TNF-alpha
- xCT, Change in Ct normalized to control gene [1, 8]: 3.214
- xCT, Fold (absolute) change normalized [1, 8]: 9.3
- xCT, Percent change normalized [1, 8]: 930%
- IL1-beta, Percent change normalized [2, 8]: 3,000%
- xCT, Change in Ct normalized to control gene ([5]; 100 ng/ml): 1.376
- xCT, Fold change normalized ([5]; 100 ng/ml): 2.60
- xCT, Percent change normalized ([5]; 100 ng/ml): 260%
- Lcn-2, Percent change normalized ([6]; 100 ng/ml): 244%
- Calculated glutamate levels (xCT; 30 minutes in minimal media): 2.88 µM
- Fluorescence units (xCT; 30 minutes in minimal media): 13398
- Calculated glutamate levels (xCT; 120 minutes in minimal media): 9.05 µM
- Fluorescence units (xCT; 120 minutes in minimal media): 34307
- Calculated glutamate levels (xCT; 240 minutes in minimal media): 13.82 µM
- Fluorescence units (xCT; 240 minutes in minimal media): 50468

Molecule: IL-17A: inflammatory cytokine
- xCT, Change in Ct normalized to control gene ([1]; 10 ng/ml, complete media): 1.652
- xCT, Fold change normalized ([1]; 10 ng/ml, complete media): 3.1
- xCT, Percent change normalized ([1]; 10 ng/ml, complete media): 314%
- xCT, Change in Ct normalized to control gene ([5]; 100 ng/ml): 0.351
- xCT, Fold change normalized ([5]; 100 ng/ml): 1.28
- xCT, Percent change normalized ([5]; 100 ng/ml): 128%
- Lcn-2, Percent change normalized ([6]; 100 ng/ml): 123%

Molecule: Nc1ccc(S(=O)(=O)Nc2ccccn2)cc1 [Sulfapyridine, sulfapyridine]
- oral bioavailability (reaching the circulation following oral dosing) [7]: > 70%

Molecule: Nc1nc2ccc(OC(F)(F)F)cc2s1 [riluzole]
- increased lifespan after onset of neurological disease [3, 9]: 1%
- increased absolute lifespan ([3]; same SOD1 model under similar conditions, Lincecum et al.): 1.6%

B1: IL-4: anti-inflammatory cytokine, tested as a control (protein, UniProt P05112 25-153, looked up)
Interleukin-4: HKCDITLQEIIKTLNSLTEQKTLCTELTVTDIFAASKNTTEKETFCRAATVLRQFYSHHEKDTRCLGATAQQFHRHKQLIRFLKRLDRNLWGLAGLNSCPVKEANQSTLENFLERLKTIMREKYSKCSS
- xCT, Change in Ct normalized to control gene [1, 8]: −0.147
- xCT, Fold (absolute) change normalized [1, 8]: 0.9
- xCT, Percent change normalized [1, 8]: 90%
- xCT, Change in Ct normalized to control gene ([5]; 100 ng/ml): −0.097
- xCT, Fold change normalized ([5]; 100 ng/ml): 0.93
- xCT, Percent change normalized ([5]; 100 ng/ml): 93%
- Lcn-2, Percent change normalized ([6]; 100 ng/ml): 103%
